From PubChem BioAssay AID328 (DTP/NCI, 2004)
Toxic doses and inconclusive results are not listed.

Test system: BDF1 mice, P388 leukemia ip, median survival T/C
Test: NCI In Vivo Anticancer Drug Screen. Data for tumor model P388 Leukemia (intraperitoneal) in B6D2F1 (BDF1) mice
Details: endpoint: median survival time, higher = longer survival
In short: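 Reported as T/C, where T is the survival measurement in dosed animals and C the same measurement in vehicle controls.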

[1] = dose: 50.0 mg/kg/injection, schedule: Q01DX009 (ip), vehicle: saline with Tween-80
[2] = dose: 100.0 mg/kg/injection, schedule: Q01DX009 (ip), vehicle: saline with Tween-80
[3] = dose: 200.0 mg/kg/injection, schedule: Q01DX009 (ip), vehicle: saline with Tween-80
[4] = dose: 12.5 mg/kg/injection, schedule: Q01DX009 (ip), vehicle: saline with Tween-80
[5] = dose: 100.0 mg/kg/injection, schedule: Q04DX003 (ip), vehicle: saline with Tween-80
[6] = dose: 200.0 mg/kg/injection, schedule: Q04DX003 (ip), vehicle: saline with Tween-80
[7] = dose: 400.0 mg/kg/injection, schedule: Q04DX003 (ip), vehicle: saline with Tween-80
[8] = dose: 100.0 mg/kg/injection, schedule: Q01DX009 (ip), vehicle: Klucel (hydroxypropylcellulose) (HPC)
[9] = dose: 200.0 mg/kg/injection, schedule: Q01DX009 (ip), vehicle: Klucel (hydroxypropylcellulose) (HPC)
[10] = dose: 400.0 mg/kg/injection, schedule: Q01DX009 (ip), vehicle: Klucel (hydroxypropylcellulose) (HPC)

## CC1(C)CCCC2(C)C3CCC(C31)C2OC(=O)c1ccc([N+](=O)[O-])cc1 (centres undefined)
dose: 50.0 mg/kg/injection, schedule: Q01DX001 (ip), vehicle: saline with Tween-80
  T/C: 100 % of control
dose: 100.0 mg/kg/injection, schedule: Q01DX001 (ip), vehicle: saline with Tween-80
  T/C: 100 % of control
dose: 200.0 mg/kg/injection, schedule: Q01DX001 (ip), vehicle: saline with Tween-80
  T/C: 105 % of control

## Clc1ccc(C2(Cn3ccnc3)OCC(COc3ccc(-c4ccccc4)cc3)O2)c(Cl)c1 (centres undefined)
[1]
  T/C: 108 % of control
[2]
  T/C: 101 % of control
[3]
  T/C: 99 % of control

## c1cc[c]([Pb]([c]2ccccc2)([c]2ccccc2)[n]2c3ccccc3c3ccccc32)cc1
dose: 0.19 mg/kg/injection, schedule: Q01DX009 (ip), vehicle: saline
  T/C: 90 % of control
dose: 0.39 mg/kg/injection, schedule: Q01DX009 (ip), vehicle: saline
  T/C: 100 % of control
dose: 0.78 mg/kg/injection, schedule: Q01DX009 (ip), vehicle: saline
  T/C: 95 % of control
dose: 1.56 mg/kg/injection, schedule: Q01DX009 (ip), vehicle: saline
  T/C: 100 % of control
dose: 3.0 mg/kg/injection, schedule: Q04DX003 (ip), vehicle: saline
  T/C: 112 % of control
dose: 4.12 mg/kg/injection, schedule: Q01DX009 (ip), vehicle: saline
  T/C: 100 % of control
dose: 6.0 mg/kg/injection, schedule: Q04DX003 (ip), vehicle: saline
  T/C: 116 % of control
dose: 12.0 mg/kg/injection, schedule: Q04DX003 (ip), vehicle: saline
  T/C: 104 % of control

## CC(=O)CC(C)=O.CC(=O)CC(C)=O.[Co]
dose: 6.25 mg/kg/injection, schedule: Q01DX009 (ip), vehicle: saline with Tween-80
  T/C: 96 % of control
dose: 6.25 mg/kg/injection, schedule: Q04DX003 (ip), vehicle: saline with Tween-80
  T/C: 88 % of control
[4]
  T/C: 112 % of control
dose: 12.5 mg/kg/injection, schedule: Q04DX003 (ip), vehicle: saline with Tween-80
  T/C: 92 % of control
dose: 25.0 mg/kg/injection, schedule: Q01DX009 (ip), vehicle: saline with Tween-80
  T/C: 120 % of control
dose: 25.0 mg/kg/injection, schedule: Q04DX003 (ip), vehicle: saline with Tween-80
  T/C: 92 % of control

## CCc1ccc(C(=O)C2CC2)cc1
[5]
  T/C: 104 % of control
dose: 133.0 mg/kg/injection, schedule: Q01DX008 (ip), vehicle: saline with Tween-80
  T/C: 108 % of control
dose: 200.0 mg/kg/injection, schedule: Q01DX008 (ip), vehicle: saline with Tween-80
  T/C: 116 % of control
[6]
  T/C: 112 % of control
dose: 300.0 mg/kg/injection, schedule: Q01DX008 (ip), vehicle: saline with Tween-80
  T/C: 115 % of control
[7]
  T/C: 104 % of control

## O=C(O)CCCCOc1ccc(N(CCCl)CCCl)cc1
dose: 50.0 mg/kg/injection, schedule: Q01DX001 (ip), vehicle: Klucel (hydroxypropylcellulose) (HPC)
  T/C: 174 % of control
dose: 100.0 mg/kg/injection, schedule: Q01DX001 (ip), vehicle: Klucel (hydroxypropylcellulose) (HPC)
  T/C: 177 % of control
dose: 200.0 mg/kg/injection, schedule: Q01DX001 (ip), vehicle: Klucel (hydroxypropylcellulose) (HPC)
  T/C: 155 % of control

## CCCC1CC[N-]CC1.CCCC1CC[N-]CC1.CCCC1CC[N-]CC1.CCCC1CC[N-]CC1.[Cl][Rh][Cl]
dose: 0.35 mg/kg/injection, schedule: Q01DX009 (ip), vehicle: saline
  T/C: 122 % of control
dose: 0.53 mg/kg/injection, schedule: Q01DX009 (ip), vehicle: saline
  T/C: 123 % of control
dose: 0.8 mg/kg/injection, schedule: Q01DX009 (ip), vehicle: saline
  T/C: 119 % of control
dose: 3.0 mg/kg/injection, schedule: Q01DX009 (ip), vehicle: Klucel (hydroxypropylcellulose) (HPC)
  T/C: 86 % of control

## CCCO/C(N)=N/OS(=O)(=O)c1ccccc1
[5]
  T/C: 97 % of control
[6]
  T/C: 99 % of control
[7]
  T/C: 96 % of control

## C1=CC(=P(c2ccccc2)(c2ccccc2)c2ccccc2)C=C1
dose: 50.0 mg/kg/injection, schedule: Q01DX010 (ip), vehicle: saline
  T/C: 100 % of control
dose: 100.0 mg/kg/injection, schedule: Q01DX010 (ip), vehicle: saline
  T/C: 100 % of control
dose: 200.0 mg/kg/injection, schedule: Q01DX010 (ip), vehicle: saline
  T/C: 100 % of control
dose: 400.0 mg/kg/injection, schedule: Q01DX010 (ip), vehicle: saline
  T/C: 100 % of control

## Cc1ccc2c(c1)Oc1ccccc1N=C2
[1]
  T/C: 97 % of control
[2]
  T/C: 103 % of control
[3]
  T/C: 97 % of control

## COC(=O)/C=C1/C(=O)N(C)c2ccccc21
[1]
  T/C: 122 % of control
[2]
  T/C: 98 % of control
[3]
  T/C: 104 % of control

## CC1=CCC2(C)C(=O)C1CC1=C2CC(C)(C)CC1=O (centres undefined)
dose: 100.0 mg/kg/injection, schedule: Q01DX009 (ip), vehicle: saline
  T/C: 100 % of control
dose: 400.0 mg/kg/injection, schedule: Q01DX009 (ip), vehicle: saline
  T/C: 100 % of control

## CC(=O)Oc1c(C)c2c(O)c3c1C1=C(OCOC1=C(C)C3=O)C(C)=CC(C)(O)C(O)C(C)C(O)C1C(=O)OC(C(C)/C=C\C=C(C)C(=O)N2)C(C)C1O (centres undefined)
[8]
  T/C: 119 % of control
[9]
  T/C: 123 % of control
[10]
  T/C: 110 % of control

## CN=S(=O)(OCCCCCCCCCOS(=O)(=NC)c1ccc(C)cc1)c1ccc(C)cc1 (centres undefined)
[4]
  T/C: 108 % of control
[1]
  T/C: 117 % of control

## Nc1ccccc1C(=O)Nc1ncn[nH]1
[1]
  T/C: 96 % of control
[2]
  T/C: 90 % of control
[3]
  T/C: 94 % of control

## CCOC/C(C)=C/Cl
dose: 50.0 mg/kg/injection, schedule: Q01DX009 (ip), vehicle: acetone
  T/C: 104 % of control
dose: 100.0 mg/kg/injection, schedule: Q01DX009 (ip), vehicle: acetone
  T/C: 116 % of control
dose: 200.0 mg/kg/injection, schedule: Q01DX009 (ip), vehicle: acetone
  T/C: 112 % of control

## COc1ccc(Nc2ccnc3cc(Cl)ccc23)cc1CN(CCCl)CCCl
dose: 0.11 mg/kg/injection, schedule: Q01DX009 (ip), vehicle: saline
  T/C: 100 % of control
dose: 0.13 mg/kg/injection, schedule: Q01DX009 (ip), vehicle: saline
  T/C: 89 % of control
dose: 0.2 mg/kg/injection, schedule: Q01DX009 (ip), vehicle: saline
  T/C: 180 % of control
dose: 0.22 mg/kg/injection, schedule: Q01DX009 (ip), vehicle: saline
  T/C: 117 % of control
dose: 0.22 mg/kg/injection, schedule: Q04DX003 (ip), vehicle: saline
  T/C: 113 % of control
dose: 0.33 mg/kg/injection, schedule: Q04DX003 (ip), vehicle: saline
  T/C: 104 % of control
dose: 0.44 mg/kg/injection, schedule: Q01DX009 (ip), vehicle: saline
  T/C: 166 % of control
dose: 0.5 mg/kg/injection, schedule: Q04DX003 (ip), vehicle: saline
  T/C: 122 % of control
dose: 0.66 mg/kg/injection, schedule: Q01DX009 (ip), vehicle: saline
  T/C: 163 % of control
dose: 1.0 mg/kg/injection, schedule: Q01DX009 (ip), vehicle: saline
  T/C: 163 % of control
dose: 1.25 mg/kg/injection, schedule: Q01DX009 (ip), vehicle: Klucel (hydroxypropylcellulose) (HPC)
  T/C: 155 % of control
dose: 1.5 mg/kg/injection, schedule: Q01DX009 (ip), vehicle: saline
  T/C: 176 % of control
dose: 2.5 mg/kg/injection, schedule: Q01DX009 (ip), vehicle: Klucel (hydroxypropylcellulose) (HPC)
  T/C: 155 % of control
dose: 3.13 mg/kg/injection, schedule: Q04DX003 (ip), vehicle: saline
  T/C: 154 % of control
dose: 4.0 mg/kg/injection, schedule: Q01DX009 (ip), vehicle: saline
  T/C: 86 % of control
dose: 25.0 mg/kg/injection, schedule: Q04DX003 (ip), vehicle: saline sonified
  T/C: 88 % of control

## C[C@]12CCC(=O)C=C1CC[C@H]1[C@@H]3CCC(=O)O[C@@]3(C)CC(=O)[C@@]12F
[8]
  T/C: 111 % of control
dose: 100.0 mg/kg/injection, schedule: Q04DX003 (ip), vehicle: Klucel (hydroxypropylcellulose) (HPC)
  T/C: 90 % of control
[9]
  T/C: 96 % of control
dose: 200.0 mg/kg/injection, schedule: Q04DX003 (ip), vehicle: Klucel (hydroxypropylcellulose) (HPC)
  T/C: 109 % of control
[10]
  T/C: 100 % of control
dose: 400.0 mg/kg/injection, schedule: Q04DX003 (ip), vehicle: Klucel (hydroxypropylcellulose) (HPC)
  T/C: 86 % of control

## CN(CCC(=O)c1cccc2ccccc12)Cc1ccccc1
[8]
  T/C: 115 % of control
[9]
  T/C: 100 % of control
[10]
  T/C: 105 % of control

## COC(=O)/C=C\SC(=S)C1CCCC1=O (centres undefined)
[1]
  T/C: 119 % of control
[2]
  T/C: 110 % of control
[3]
  T/C: 112 % of control

## CSc1ccc(NC(=O)NNP(=S)(Oc2ccc(C(C)(C)C)cc2)Oc2ccc(C(C)(C)C)cc2)cc1
dose: 50.0 mg/kg/injection, schedule: Q01DX005 (ip), vehicle: saline with Tween-80
  T/C: 96 % of control
dose: 100.0 mg/kg/injection, schedule: Q01DX005 (ip), vehicle: saline with Tween-80
  T/C: 96 % of control
